We go through eight molecules from patent US4794114A, “Inhibition of interleukin-1 production by monocytes and/or macrophages” (SmithKline Beckman Corporation, priority 1987, dated 1988).

In series [1] the test system is IL-1 production by human monocytes. The series can be described thus: in vitro IL-1 production by LPS-stimulated human peripheral blood monocytes (EL-4 readout). It is filed as cell-based. As to conditions: for inhibition at 0.1 µM / inhibition at 1 µM / inhibition at 10 µM: Homo sapiens, Monocyte. Here is the method: The effects of antiinflammatory/antiarthritic drugs of different classes, including Compound 1 on the in vitro production of IL-1 by human monocytes was examined.
(§1) Bacterial lipopolysaccharide (LPS) was used to induce IL-1 production by human peripheral blood monocytes. IL-1 activity was measured by its ability to stimulate a Interleukin 2 (IL-2) producing cell line (EL-4) to secrete IL-2, in concert with A23187 ionophore, according to the method of Simon et al., J. Immunol. Methods, 84, 85, (1985). Human peripheral blood monocytes were isolated and purified from either fresh blood preparations from volunteer donors, or from blood Bank buffy coats, according to the procedure of Colotta et al., J. Immunol., 132, 936 (1984). 1×10^6 of such monocytes are plated in 24-well plates at a concentration of 2 million/ml per well. The cells were allowed to adhere for 2 hours, after which time non-adherent cells were removed by gentle washing. Test compounds were then added to the cells for 1 hour (hr) before the addition of lipopolysaccharide (10 ng/ml unless otherwise noted), and the cultures were incubated at 37° C. for an additional 24 hours. At the end of the incubation period, culture supernatants were removed and clarified of cells and all debris. Culture supernatants were immediately assayed for IL-1 biological activity as well as prostaglandin and/or leukotriene concentrations by radioimmunoassay.
^(a) All compounds, except chloroquine, were dissolved in absolute
ethanol at 10^-2 M, which was subsequently diluted further in tissue
assay system at doses tested. Furthermore, test samples were dialyzed
prior to testing in the IL1 assay.
In order to elucidate the mechanism by which Compound 1 mediates its anti-inflammatory activity, the ability of this compound and two closely related analog metabolites, (i.e., the analogs of Compound 1 wherein X is S(0)n and n is 1 or 2) to inhibit human IL-1 production in vitro was evaluated according to the method of Example 1. Briefly, 1×10^6 human peripheral blood monocytes were plated in 24-well plates and allowed to adhere for 1 hr at 37° C. The above compounds were added to a final concentration of 10^-5 M to 10^-8 M. The monocytes were stimulated to produce IL-1 with 1 ng/ml LPS after a 1 hr pretreatment of the cells with the respective compounds.
The inhibitory effect of additional compounds of Formula (I) on the in vitro production of IL-1 production of IL-1 by human monocytes was determined according to the procedure of Examples 1 and 2.

The subject of another series is PGE2. The series can be described thus: in vitro prostaglandin (PGE2) synthesis by LPS-stimulated human monocytes, RIA. It counts as cell-based. As to conditions: for inhibition at 0.1 µM / inhibition at 1 µM / inhibition at 10 µM: Homo sapiens, Monocyte, read-out: % Inhibition PGE2. The method, then:
as §1
^(c) PGE2 was assayed using an RIA kit.

In series [2] the test system is IL-1 production by human monocytes. As to conditions: Lipsky, Amer. J. Med. 75, Supp. 1A, 19 (1983); cited from earlier work.
For series [3], the system named is endotoxin shock in C57B1/6 mice. It is filed as in vivo, mouse. As to conditions: for protection from lethal effects of LPS/GALN: mouse, in vivo. Here is the method: (§2) Mice are very resistant to the lethal effects of bacterial lipopolysaccharides (LPS). D-Galactosamine (D-GALN) induces a high degree of sensitization to the lethal effects of LPS in mice and other experimental animals. [See, Galanos et al., Proc. Natl. Acad Sci. USA., 76, 5939 (1979)]. In mice, depending on the strain and age, the sensitivity to endotoxin can be increased many thousand-fold.
A number of preliminary experiments were carried out to establish this model of lethal endotoxin shock.

The test system of another series is C57B1/6 mice. Put plainly: lethality of LPS in D-galactosamine treated C57B1/6 mice. It counts as in vivo, mouse. As to conditions: for Lethality, No. of Death/Total No.: D-Galactosamine 500 mg/kg i.v. Here is the method: as §2
A number of preliminary experiments were carried out to establish this model of lethal endotoxin shock. LPS concentrations of up to 1 mg/mouse are not lethal in C57B1/6 mice. When injected i.v. with D-GALN (500 mg/kg), however, the sensitivity increases so that 0.1 ug becomes a lethal dose (Table 5). The concentration of D-GALN required to obtain this effect is 400-500 mg/kg.
All compounds were administered i.v.

A further series is described as follows: in vitro. As to conditions: human, peripheral blood monocytes. It counts as cell-based, human. Here is the method:
as §1
^(b) At doses at or above 10^-5 M, this compound exerted some

The test system of series [4] is murine model of endotoxin shock. As to conditions: Hagmann et al., 1982; cited from earlier work.
Where [5] appears, read: 10^-6 M, read-out: % Inhibition IL-1.
The mark [6] stands for this setting: 10^-7 M, read-out: % Inhibition IL-1.

Read-outs that look alike come from different tables or passages of the source.

`CCN(CC)CCCC(C)Nc1ccnc2cc(Cl)ccc12` (stereo not shown) [Chloroquine]: in series [1] (read-out: % Inhibition IL-1), the inhibition (in general, the change of the read-out against control, counted positive when it falls) at 0.1 µM was determined as 36%; the inhibition at 1 µM came to 46%; the inhibition at 10 µM was determined as 89%. The “inhibition of IL-1 production” value in series [1] (doses one or two logs higher than Compound 1) is “only marginally active”. In addition, in the series on PGE2, the inhibition at 0.1 µM was found to be 0%, the inhibition at 1 µM came out at 0% and the inhibition at 10 µM came to 84%. Also, the “inhibition of IL-1 production, literature” value in series [2] is given as “inhibit IL-1 production”.

For `Fc1ccc(-c2nc3n(c2-c2ccncc2)CCC3)cc1` [Compound 5], the inhibition at 1 µM in series [1] (10^-6 M, Table 3, read-out: % Inhibition @ 10^-6 M) was determined as 78%. In addition, the “protection from lethal effects of LPS/GALN” value (“protection … of LPS/GALN” for short) in series [3] was “protective effects”.

Turning to `N[C@H]1C(O)O[C@H](CO)[C@H](O)[C@@H]1O` (stereo partly drawn) [D-Galactosamine], the “Lethality, No. of Death/Total No.” value in the series with C57B1/6 mice (6 Hr.) and with C57B1/6 mice (24 Hr.) was 0/10 throughout. Further, the “D-GALN concentration required to sensitize to LPS” value in the series on C57B1/6 mice (with LPS, i.v.) lay in the range of 400 to 500 mg/kg.

Turning to `C[C@@H]1C[C@H]2[C@@H]3CCC4=CC(=O)C=C[C@]4(C)[C@@]3(F)[C@@H](O)C[C@]2(C)[C@@]1(O)C(=O)CO` [Dexamethasone], the “protection” value in series [3] (administered 24 hours and 1 hour prior to LPS/GALN) is reported as “provided protection”.

For the molecule `CC(Cc1ccc(O)c(O)c1)C(C)Cc1ccc(O)c(O)c1` (stereo not shown) [NDGA, nordihydroguaiaretic acid], the “inhibition of IL-1 production” value in series [1] is reported as “marginally active in inhibition of IL-1 production”. For the same molecule, the inhibition at 10 µM is 88% in series [1] (10^-5 M, read-out: % Inhibition IL-1) and 25% with PGE2 (10^-5 M). Further, the inhibition at 1 µM in series [1] (setting [5]) is 33%; in the series on PGE2 (10^-6 M), 0%. Moreover, the figures for the inhibition at 0.1 µM (in series [1] (setting [6]); with PGE2 (10^-7 M)) were 31% and 0%, respectively. Besides, the “inhibition of prostaglandin synthesis” value in the series with PGE2 was “little inhibitory effect on prostaglandin synthesis”. In addition, the viability (as a rule, a per cent measure of how many cells are alive, often set against a control) at 24 h, 10 µM in “in vitro” was about 50%.

On to `O=C1CCN(c2ccccc2)N1` [Phenidone, phenidone], for which, in series [1], the “inhibition of IL-1 production” value was “marginally active in inhibition of IL-1 production”. Further, the figures for the inhibition at 1 µM (in series [1] (setting [5]); with PGE2 (10^-6 M)) were 18% and 0%, respectively. In addition, in series [1] (setting [6]), the inhibition at 0.1 µM is 0%. The “inhibition of prostaglandin synthesis” value with PGE2 is recorded as “little inhibitory effect on prostaglandin synthesis”. Also, the “protection … of LPS/GALN” value in series [3] is on record as “protective effects”.

As for `Clc1ccc(C(c2ccc(Cl)cc2)n2cc[n+](CC(OCc3ccc(Cl)cc3Cl)c3ccc(Cl)cc3Cl)c2)cc1` (stereo not shown) [calmidazolium], the “prevention of endotoxin lethality” value in series [4] is listed as “prevented endotoxin lethality”.

As to `CN/C(=N/CCSCc1nc[nH]c1C)NC#N` [cimetidine], the “protection … of LPS/GALN” value in series [3] is given as “not”.
